Experimental findings from article PMC8752633 (2022) are described below.

In assay [1] the test system is Can preQ1-II riboswitch C31U (RNA, riboswitch) UGUGGUUCGCAACCAUCCCACAUAAAAAAAUUAG
As to the kind of experiment: ITC (VP-ITC, two interdependent non-equivalent sites model). As to conditions: 100 mM Na+ (NaCl), 4 mM Mg2+; 50 mM Na-HEPES pH 7.0, 25 °C; macroscopic, first binding event (KD2 10.26 µM).

Assay [2] concerns Can preQ1-II riboswitch WT (RNA, riboswitch) UGUGGUUCGCAACCAUCCCACAUAAAAAAACUAG
The assay can be described thus: ITC (PEAQ-ITC, single-sites model). As to conditions: 100 mM Na+ (NaCl), 4 mM Mg2+; 50 mM Na-HEPES pH 7.0, 25 °C; apparent; average over two cooperative sites.

Assay [3] shares this test system. The assay can be described thus: X-ray crystallography, 2.60 Å. The note with it: 80 mM K+ (KCl), 12 mM Na+ (NaCl), 2 mM hexammine cobalt(III); 40 mM sodium cacodylate pH 5.5, 30% MPD, 20 °C; folded with Mg2+.
Assay [4] relates to Can preQ1-II riboswitch C17U (RNA, riboswitch) UGUGGUUCGCAACCAUUCCACAUAAAAAAACUAG
The assay can be described thus: ITC (VP-ITC, two interdependent non-equivalent sites model). As to conditions: 100 mM Na+ (NaCl), 4 mM Mg2+; 50 mM Na-HEPES pH 7.0, 25 °C; macroscopic, second binding event (KD1 3.13 µM).

Assay [5] relates to Hin riboswitch WT (RNA, riboswitch) GUAGUUCGCAAACCUCCUACAAUAAAAAACUAG
As to the kind of experiment: ITC (PEAQ-ITC, single-sites model). The note with it: 100 mM Na+ (NaCl), 4 mM Mg2+; 50 mM Na-HEPES pH 7.0, 25 °C; apparent; average over two cooperative sites.

Assay [6] has as its system Ngo riboswitch WT (RNA, riboswitch) CGCGGUUCGCAAACCUCCCGCGUUACCAAAACUAG
The assay can be described thus: ITC (PEAQ-ITC, single-sites model). As to conditions: 100 mM Na+ (NaCl), 4 mM Mg2+; 50 mM Na-HEPES pH 7.0, 25 °C; apparent; average over two cooperative sites.

Regarding `NCc1c[nH]c2nc(N)[nH]c(=O)c12`, the KD1 in assay [1] was determined as 6.64 µM. Also, the “KD, app” value was found to be 0.032 ± 0.002 µM in assay [2], 0.0529 ± 0.0002 µM in assay [5] and 0.0505 ± 0.0013 µM in assay [6]. The binding result in assay [3] was “yes”. Further, the KD2 in assay [4] is recorded as 1.30 µM.
